According to patent US8426419B2, “Tyrosine kinase inhibitors containing a zinc binding moiety” (Curis, Inc., priority 2006, dated 2013):
Each block holds one compound with its values, some of them ahead of it.

How the values were obtained:
[1] = target: T1, human PDGFR-beta (Arg561-Leu1106) (Homo sapiens, UniProt P09619); assay: HTScan tyrosine kinase assay, PDGFR-beta; format: biochemical; settings: read-out: PDGFb IC50
T1 construct: fragment (Arg561-Leu1106); GST (N); His6 (N); thrombin cleavage site (N); purchased Cell Signaling Technologies; host or cells: baculovirus expression system
Procedure: (§1) The proteins are purified by one-step affinity chromatography using glutathione-agarose. An anti-phosphotyrosine monoclonal antibody, P-Tyr-100, is used to detect phosphorylation of biotinylated substrate peptides (Abl1 and Src, Biotin-Signal Transduction Protein (Tyr160); c-Kit, Biotinylated-KDR (Tyr996); PDGFR-β, Biotinylated-FLT3 (Tyr589)). […] Data are plotted using GraphPad Prism (v4.0a) and IC50's are calculated using a sigmoidal dose response curve fitting algorithm.
(§2) Each assay is setup as follows: 100 μl of 10 mM ATP is added to 1.25 ml 6 mM substrate peptide. […] The enzyme is immediately transferred from −80° C. to ice. The enzyme is allowed to thaw on ice. […] 25 μl of 2× ATP/substrate cocktail is added to 25 μl/well preincubated reaction cocktail/compound. The reaction plate is incubated at room temperature for 30 minutes. […] 100 μl/well primary antibody is added and the mixture is incubated at room temperature for 60 minutes. The plates are again washed three times with 200 μl/well PBS/T. Europium labeled anti-mouse IgG is diluted 1:500 in PBS/T with 1% BSA. 100 μl/well diluted antibody is added and the mixture is incubated at room temperature for 30 minutes. The plate is washed five times with 200 μl/well PBS/T. 100 μl/well DELFIA® Enhancement Solution is added and the mixture is incubated at room temperature for 5 minutes. 615 nm fluorescence emission is detected using an appropriate Time-Resolved Plate Reader.

[2] = target: T2, full length human Src (Met1-Leu536) (Homo sapiens, UniProt P12931); assay: HTScan tyrosine kinase assay, Src; format: biochemical
T2 construct: full length human Src (Met1-Leu536); GST (N); purchased Cell Signaling Technologies; host or cells: baculovirus expression system
Procedure: as §1, §2

Lyn = Lyn (Homo sapiens, UniProt P07948); assay: Lyn assay (Table B); format: biochemical
[3] = target: T3, human Abl1 (Pro118-Ser553) (Homo sapiens, UniProt P00519); assay: HTScan tyrosine kinase assay, Abl1; format: biochemical; settings: read-out: ABL IC50
T3 construct: human Abl1 (Pro118-Ser553); GST (N); purchased Cell Signaling Technologies; host or cells: baculovirus expression system
T3 sequence (P00519 118-553): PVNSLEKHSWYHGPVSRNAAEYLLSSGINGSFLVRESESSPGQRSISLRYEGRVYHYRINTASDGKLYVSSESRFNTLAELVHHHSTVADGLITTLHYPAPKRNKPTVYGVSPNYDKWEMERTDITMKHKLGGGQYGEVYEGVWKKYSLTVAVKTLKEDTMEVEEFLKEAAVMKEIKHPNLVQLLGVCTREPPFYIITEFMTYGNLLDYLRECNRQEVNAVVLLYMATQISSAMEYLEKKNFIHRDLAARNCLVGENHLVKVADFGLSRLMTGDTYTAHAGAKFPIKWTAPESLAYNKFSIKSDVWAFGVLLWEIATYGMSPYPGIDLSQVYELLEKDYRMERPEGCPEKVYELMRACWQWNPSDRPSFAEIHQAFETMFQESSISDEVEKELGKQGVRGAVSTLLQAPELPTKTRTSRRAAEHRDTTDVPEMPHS
Procedure: as §1, §2

HDAC = HDAC fluorimetric assay kit (AK-500, Biomol), HeLa nuclear extract; format: biochemical
Procedure: HDAC inhibitors is screened using an HDAC fluorimetric assay kit (AK-500, Biomol, Plymouth Meeting, Pa.).
Each assay is setup as follows: Defrost all kit components and kept on ice until use. […] Prepare dilutions of Trichostatin A (TSA, positive control) and tested compounds in assay buffer (5× of final concentration). Dilute Fluor de Lys™ Substrate in assay buffer to 100 uM (50 fold=2× final). Dilute Fluor de Lys™ developer concentrate 20-fold (e.g. 50 μl plus 950 μl Assay Buffer) in cold assay buffer. Second, dilute the 0.2 mM Trichostatin A 100-fold in the 1× Developer (e.g. 10 μl in 1 ml; final Trichostatin A concentration in the 1× Developer=2 μM; final concentration after addition to HDAC/Substrate reaction=1 μM). Add Assay buffer, dilute trichostatin A or test inhibitor to appropriate wells of the microtiter plate. Add diluted HeLa extract or other HDAC sample to all wells except for negative controls.

[4] = target: T4, human c-Kit (Thr544-Val976) (Homo sapiens, UniProt P10721); assay: HTScan tyrosine kinase assay, c-Kit; format: biochemical
T4 construct: human c-Kit (Thr544-Val976); GST (N); purchased Cell Signaling Technologies; host or cells: baculovirus expression system
Procedure: as §1, §2

Lck = Lck (Homo sapiens, UniProt P06239); assay: Lck assay (Table B); format: biochemical
Chain of Lck (P06239 whole entry, species assumed): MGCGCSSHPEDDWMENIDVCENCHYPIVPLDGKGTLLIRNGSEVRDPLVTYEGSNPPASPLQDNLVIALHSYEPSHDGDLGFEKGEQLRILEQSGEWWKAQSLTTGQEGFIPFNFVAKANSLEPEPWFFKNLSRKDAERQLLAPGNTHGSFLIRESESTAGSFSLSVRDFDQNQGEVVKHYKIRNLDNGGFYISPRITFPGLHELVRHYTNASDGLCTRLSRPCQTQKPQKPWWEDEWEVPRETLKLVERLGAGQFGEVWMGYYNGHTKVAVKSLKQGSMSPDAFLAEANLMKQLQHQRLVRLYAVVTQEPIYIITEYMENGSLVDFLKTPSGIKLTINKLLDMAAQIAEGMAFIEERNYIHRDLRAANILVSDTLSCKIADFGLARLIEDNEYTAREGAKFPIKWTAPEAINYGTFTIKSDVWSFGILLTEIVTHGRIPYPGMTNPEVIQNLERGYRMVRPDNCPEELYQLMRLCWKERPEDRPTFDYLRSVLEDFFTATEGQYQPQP

T4 sequence (P10721 544-976): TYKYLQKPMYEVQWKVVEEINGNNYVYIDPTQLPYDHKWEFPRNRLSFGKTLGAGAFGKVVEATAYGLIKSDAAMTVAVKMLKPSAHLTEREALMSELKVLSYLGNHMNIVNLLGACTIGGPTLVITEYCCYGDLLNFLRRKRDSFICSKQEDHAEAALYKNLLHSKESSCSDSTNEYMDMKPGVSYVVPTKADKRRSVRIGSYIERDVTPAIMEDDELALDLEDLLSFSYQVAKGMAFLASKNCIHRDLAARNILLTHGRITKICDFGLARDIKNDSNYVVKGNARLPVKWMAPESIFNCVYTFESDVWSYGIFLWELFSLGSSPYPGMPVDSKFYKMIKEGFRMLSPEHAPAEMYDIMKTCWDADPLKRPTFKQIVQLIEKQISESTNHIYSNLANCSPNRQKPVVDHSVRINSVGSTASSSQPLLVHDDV
T2 sequence (P12931 whole entry): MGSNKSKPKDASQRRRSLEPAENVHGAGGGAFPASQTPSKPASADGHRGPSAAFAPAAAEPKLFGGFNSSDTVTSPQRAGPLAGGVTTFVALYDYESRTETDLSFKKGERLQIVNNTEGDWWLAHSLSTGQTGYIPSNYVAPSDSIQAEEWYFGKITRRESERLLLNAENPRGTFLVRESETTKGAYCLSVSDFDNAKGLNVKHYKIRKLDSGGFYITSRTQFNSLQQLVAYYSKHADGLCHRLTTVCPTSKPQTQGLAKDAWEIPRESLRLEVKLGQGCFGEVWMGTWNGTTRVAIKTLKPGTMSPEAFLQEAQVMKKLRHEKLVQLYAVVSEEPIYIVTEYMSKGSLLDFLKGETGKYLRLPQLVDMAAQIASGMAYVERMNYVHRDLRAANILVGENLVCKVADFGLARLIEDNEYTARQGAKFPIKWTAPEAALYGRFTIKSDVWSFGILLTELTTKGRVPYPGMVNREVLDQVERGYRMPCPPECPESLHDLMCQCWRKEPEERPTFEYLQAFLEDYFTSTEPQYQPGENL
Chain of Lyn (P07948 whole entry, species assumed): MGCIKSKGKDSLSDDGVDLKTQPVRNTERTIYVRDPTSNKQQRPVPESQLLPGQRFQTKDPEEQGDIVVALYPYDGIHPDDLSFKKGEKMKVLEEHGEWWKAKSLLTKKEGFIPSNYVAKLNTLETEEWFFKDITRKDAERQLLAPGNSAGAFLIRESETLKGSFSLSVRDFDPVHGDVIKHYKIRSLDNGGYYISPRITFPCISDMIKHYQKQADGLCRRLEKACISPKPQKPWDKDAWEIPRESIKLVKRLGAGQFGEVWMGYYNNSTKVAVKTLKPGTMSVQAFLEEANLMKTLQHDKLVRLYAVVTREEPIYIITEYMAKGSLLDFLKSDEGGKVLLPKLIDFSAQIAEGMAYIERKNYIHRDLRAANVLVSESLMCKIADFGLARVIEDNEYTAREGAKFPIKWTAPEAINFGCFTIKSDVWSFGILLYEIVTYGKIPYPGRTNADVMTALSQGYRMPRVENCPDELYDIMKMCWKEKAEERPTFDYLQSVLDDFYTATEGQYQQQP
T1 sequence (P09619 561-1106): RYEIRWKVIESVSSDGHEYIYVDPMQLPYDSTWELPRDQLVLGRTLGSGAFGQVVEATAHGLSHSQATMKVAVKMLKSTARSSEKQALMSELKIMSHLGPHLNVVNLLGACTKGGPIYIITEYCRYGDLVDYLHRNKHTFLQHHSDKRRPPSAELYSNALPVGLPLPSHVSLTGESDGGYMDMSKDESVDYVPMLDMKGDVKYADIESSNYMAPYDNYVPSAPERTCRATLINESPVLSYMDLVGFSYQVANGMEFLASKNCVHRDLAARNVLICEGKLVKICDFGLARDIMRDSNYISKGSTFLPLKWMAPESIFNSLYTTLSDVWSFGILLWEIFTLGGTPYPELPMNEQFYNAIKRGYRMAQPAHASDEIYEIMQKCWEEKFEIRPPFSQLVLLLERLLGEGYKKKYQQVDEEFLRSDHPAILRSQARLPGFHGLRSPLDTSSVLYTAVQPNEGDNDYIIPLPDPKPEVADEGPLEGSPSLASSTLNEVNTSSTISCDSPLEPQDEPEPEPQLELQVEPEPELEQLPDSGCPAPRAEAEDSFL

Structure (SMILES): Cc1nc(Nc2ncc(C(=O)Nc3c(C)cccc3Cl)s2)cc(N2CCN(CC(=O)NO)CC2)n1 [Compound 1, N-(2-chloro-6-methylphenyl)-2-(6-(4-(2-(hydroxyamino)-2-oxoethyl)piperazin-1-yl)-2-methylpyrimidin-4-ylamino)thiazole-5-carboxamide]
IC50 [1]: < 100 nM
IC50 [2]: < 100 nM
IC50 [3]: < 100 nM
IC50 (HDAC): 1000 to 10000 nM

Structure (SMILES): Cc1nc(N)cc(N(CC(=O)NO)c2ncc(C(=O)Nc3c(C)cccc3Cl)s2)n1 [Compound 30]
IC50 [2]: 100 to 1000 nM
IC50 [3]: 100 to 1000 nM
IC50 (HDAC): > 10000 nM

Structure (SMILES): Cc1nc(Nc2ncc(C(=O)Nc3c(C)cccc3Cl)s2)cc(N2CCN(CCCC(=O)NO)CC2)n1 [Compound 3, N-(2-chloro-6-methylphenyl)-2-(6-(4-(4-(hydroxyamino)-4-oxobutyl)piperazin-1-yl)-2-methylpyrimidin-4-ylamino)thiazole-5-carboxamide]
IC50 [2]: < 100 nM
IC50 [3]: < 100 nM
IC50 (HDAC): 1000 to 10000 nM

Structure (SMILES): Cc1nc(NCCNCC(=O)NO)cc(Nc2ncc(C(=O)Nc3c(C)cccc3Cl)s2)n1 [Compound 7, N-(2-chloro-6-methylphenyl)-2-(6-(2-(2-(hydroxyamino)-2-oxoethylamino)ethylamino)-2-methylpyrimidin-4-ylamino)thiazole-5-carboxamide]
IC50 [2]: < 100 nM
IC50 [3]: < 100 nM
IC50 (HDAC): > 10000 nM

Structure (SMILES): Cc1nc(NCCCCCC(=O)NO)cc(Nc2ncc(C(=O)Nc3c(C)cccc3Cl)s2)n1 [Compound 23, N-(2-chloro-6-methylphenyl)-2-(6-(6-(hydroxyamino)-6-oxohexylamino)-2-methylpyrimidin-4-ylamino)thiazole-5-carboxamide]
IC50 [1]: < 100 nM
IC50 (Lck): < 100 nM
IC50 [2]: < 100 nM
IC50 (Lyn): < 100 nM
IC50 [3]: < 100 nM
IC50 (HDAC): < 100 nM
IC50 [4]: < 100 nM

Structure (SMILES): Cc1nc(NCCCCCCC(=O)NO)cc(Nc2ncc(C(=O)Nc3c(C)cccc3Cl)s2)n1 [Compound 24, N-(2-chloro-6-methylphenyl)-2-(6-(7-(hydroxyamino)-7-oxoheptylamino)-2-methylpyrimidin-4-ylamino)thiazole-5-carboxamide]
IC50 [1]: < 100 nM
melting point: 150.7 °C (dec.)
IC50 (Lck): < 100 nM
IC50 [2]: < 100 nM
IC50 (Lyn): < 100 nM
IC50 [3]: < 100 nM
IC50 (HDAC): < 100 nM
IC50 [4]: < 100 nM

Structure (SMILES): Cc1nc(Nc2ncc(C(=O)Nc3c(C)cccc3Cl)s2)cc(N2CCN(CCCCC(=O)NO)CC2)n1 [Compound 4, N-(2-chloro-6-methylphenyl)-2-(6-(4-(5-(hydroxyamino)-5-oxopentyl)piperazin-1-yl)-2-methylpyrimidin-4-ylamino)thiazole-5-carboxamide]
IC50 [1]: < 100 nM
IC50 [2]: < 100 nM
IC50 [3]: < 100 nM
IC50 (HDAC): 100 to 1000 nM

Results, then the compound that gave them:

IC50 [1]: < 100 nM
IC50 [2]: < 100 nM
IC50 (Lyn): < 100 nM
IC50 [3]: < 100 nM
IC50 (HDAC): 100 to 1000 nM
IC50 [4]: < 100 nM
Structure (SMILES): Cc1nc(Nc2ncc(C(=O)Nc3c(C)cccc3Cl)s2)cc(N2CCN(CCCCCCC(=O)NO)CC2)n1 [Compound 6, N-(2-chloro-6-methylphenyl)-2-(6-(4-(7-(hydroxyamino)-7-oxoheptyl)piperazin-1-yl)-2-methylpyrimidin-4-ylamino)thiazole-5-carboxamide]

IC50 [1]: < 100 nM
IC50 [2]: < 100 nM
IC50 (Lyn): < 100 nM
IC50 [3]: < 100 nM
IC50 (HDAC): < 100 nM
IC50 [4]: < 100 nM
Structure (SMILES): Cc1nc(Nc2ncc(C(=O)Nc3c(C)cccc3Cl)s2)cc(N2CCN(CCCCCC(=O)NO)CC2)n1 [Compound 5, N-(2-chloro-6-methylphenyl)-2-(6-(4-(6-(hydroxyamino)-6-oxohexyl)piperazin-1-yl)-2-methylpyrimidin-4-ylamino)thiazole-5-carboxamide]

IC50 [1]: < 100 nM
IC50 [2]: < 100 nM
IC50 [3]: < 100 nM
IC50 (HDAC): 1000 to 10000 nM
Structure (SMILES): Cc1nc(Nc2ncc(C(=O)Nc3c(C)cccc3Cl)s2)cc(N2CCN(CCC(=O)NO)CC2)n1 [Compound 2, N-(2-Chloro-6-methylphenyl)-2-(6-(4-(3-(hydroxyamino)-3-oxopropyl)piperazin-1-yl)-2-methylpyrimidin-4-ylamino)thiazole-5-carboxamide]

IC50 [1]: < 100 nM
IC50 (Lck): < 100 nM
IC50 [2]: < 100 nM
IC50 (Lyn): < 100 nM
IC50 [3]: < 100 nM
IC50 (HDAC): < 100 nM
IC50 [4]: < 100 nM
Structure (SMILES): Cc1nc(NCCNCCCCCC(=O)NO)cc(Nc2ncc(C(=O)Nc3c(C)cccc3Cl)s2)n1 [Compound 11, N-(2-chloro-6-methylphenyl)-2-(6-(2-(6-(hydroxyamino)-6-oxohexylamino)ethylamino)-2-methylpyrimidin-4-ylamino)thiazole-5-carboxamide]
